From patent publication US8956622B2, “Peptidic antagonists of class III semaphorins/neuropilins complexes” (INSERM—Institut National de la Sante et de la Recherche …, priority 2005, dated 2015)
Like-named read-outs stand apart in the source and are kept apart here.

Legend:
[1] = test system: VEGF165 signalling in C6 cells; assay: VEGF165-induced migration of C6 tumour cell aggregates in 3D matrix (plasma clot); type: cell-based; conditions: VEGF165 50 ng/ml, peptide 10^−8 M
Protocol: NRP1 is a receptor of VEGF (NEUFELD et al., Adv. Exp. Med. Biol., vol. 515, p: 81-90, 2002). We therefore verified that pTM-NRP1 can antagonize VEGF signalling in C6 cells. To this end, C6 tumour cell aggregates prepared as previously described (see BAGNARD et al., 1998; and NASARRE et al., Neoplasia, vol. 7, p: 180-189, 2005) were grown in the 3D matrix (plasma clot) and treated with VEGF165.

C6 glioma = C6 glioma cells pre-incubated with peptide and injected into the striatum, tumour development at 8 days; type: in vivo, rats
Protocol: The rat C6 glioma cell line, which is a good model of human glioma (DAI and HOLLAND, Biochim. Biophys. Acta, vol. 1551, p: M19-27, 2001), has been used to investigate how the blockade of NRP1 by using our peptidic strategy (pTM-NRP1) may interfere with cell migration and dissemination.
C6 cells (ATCC CCL-107) were stained using PKH26 (Sigma). Cells were incubated with peptides (pTM-NRP1 10^−8M or mutated pTM-NRP1 10^−8M) prior to injections for at least 2 h on ice in culture medium (composed of MEM with 5000 u/ml penicillin, 5 mg/ml streptomycin, 200 mM L-glutamine and 10% fetal calf serum). Injections of 10^6 cells were performed using a stereotaxic frame according to the following coordinates: antero-posterior, +1.6 mm relative to Bregma; L, +2 mm; H, +5 mm relative to the cortical surface.
All injections were performed in the left striatum.
Following a survival period of 8 days, the animals (3 groups of 4 rats) were killed by a lethal intra-peritoneal injection of pentobarbital before trans-cardiac perfusion with a pre-rinse of 100 ml PBS followed by 500 ml of 2% formaldehyde. The brains were post-fixed during 2 hours at 4° C. and sagittal sections (70 μm) were prepared on a vibratome.
One group of sections were mounted in PBS-glycerol (v/v) for microscopic observation, and another one was treated for immunostaining of CD34. […]

[2] = test system: COS-1 cells expressing NRP1 and Plexin-A1; assay: COS cellular collapses triggered by Sema3A; type: cell-based; conditions: peptide 10^−9 M, 1 hour pre-incubation, Sema 3A 4 hours
Protocol: Nevertheless, the artificial expression of NRP1 and Plexin-A1 in COS cells allows Sema 3A to trigger cellular collapses. To investigate the effect of the pTM-NRP1 peptide on the Sema3A functional properties, the shape of COS cells expressing NRP1 and Plexin-A1 was analyzed in the presence or not of Sema 3A and of pTM-NRP1 or pTM-NRP1^mut peptide.
COS-1 cells have been transfected by 1 μg of pBK-CMV (STRATAGENE) plasmids containing NRP1 and plexin-A1 coding sequences (provided by Pr. PUSCHEL; MUNSTER Universitat, Germany) with LIPOFECTAMINE 2000 (IN VITROGEN) according to the manufacturer's instructions in 6-well plates. Stably COS-1 transfected cells have been selected with 0.7% geneticine. Stably transfected COS-1 cells have been cultured on 12-well plates with previously poly-L-lysine-coated glass coverslips. Cells have been then incubated 1 hour with pTM-NRP1 or pTM-NRP1^mut peptide (10^−9M) at 37° C. The culture medium has been then removed and replaced by conditioned medium of HEK cells stably transfected or not with a construction expressing Sema 3A (100 μl/ml D-MEM) for 4 hours at 37° C. Finally, cells have been fixed with 2% formaldehyde for 30 minutes followed by 15 minutes in formaldehyde 4%. For each condition tested, about 400 cells have been analyzed.

[3] = test system: cortical axons collapses triggered by Sema3A; assay: Cortical axons collapses triggered by Sema3A in neocortex explants; type: cell-based, mouse; conditions: Sema3A 100 ng/ml, peptide 10^−8 to 10^−11 M, 2 h, read-out: IC50, inhibition of cortical axons collapses induced by Sema3A
Protocol: The inhibitory axon growth property of Sema 3A is supposed to be linked to its induction capacity of growth cone collapses. To investigate the effect of the pTM-NRP1 peptide on the Sema 3A functional properties, the growth of cortical neurons was analyzed in the presence or not of Sema 3A and of pTM-NRP1 or pTM-NRP1^mut (NRP1 TM with a triple G→V mutation) peptides.
Laminine/Poly-L-Lysine substrates have been made by adding 980 μL of Gey's balanced salt solution (GBSS, SIGMA) to 10 μL laminine (1 mg/ml, SIGMA) and to 10 μL poly-L-Lysine (10 mg/ml, SIGMA). Sterile coverslips have been placed in a big dish and added with substrate (100 μL). Then, ‘sandwiches’ have been prepared by covering each coverslip with a second one. After an incubation for at least 30 min at 37° C. under 5% CO2 in air, ‘sandwiches’ have been opened and each coverslip has been rinsed with deionized water. Explants have been cultured on dried coverslips.
Neocortex fragments prepared from E15 mouse embryos (E1 determined as the first day of embryonic development by detection of vaginal plug) have been transferred on a tissue chopper disk. Tissue have been cut into 200×200 μm by rotating the disk by 90° after the first cut. Cortex cubes have been collected with a spatula and put into culture medium in a Petri dish. Two coverslips with substrate have been placed in a small Petri dish (50 mm diameter, FALCON). After adding 750 μl of culture medium, the coverslips should stay in the incubator for at least 10 minutes. Using a dissecting microscope, forty to fifty cortical explants have been collected in 20 μl culture medium and carefully placed onto the coverslips. After 15 min at room temperature, most explants have adhered to their substrate. 2250 μl of culture medium have been slowly added to each dish. Then, explants cultures have been kept at 37° C. under 5% CO2 in air.
A radial outgrowth could be seen after 18-24 h in culture, and individual fibres and growth cones could have therefore been analyzed. Products tested on growth cones have been directly added in culture medium for 2 h: • purified Sema3A (100 ng/ml) prepared from conditioned medium of HEK293 cells stably expressing Sema3A. The purification was performed by using the anti-Flag system, SIGMA) • pTM-NRP1 (10^−8, 10^−9, 10^−10 and 10^−11 M), • 10^−8M mpTM-NRP1, • 10^−8M pTM-ErbB2w (SEQ ID NO. 18).
After incubation, 4% formaldehyde has been directly added in culture medium (v/v) for 15min. Then the solution has been removed and replaced by 4% formaldehyde for 15 min.

For ILITIIAMSALGVLLGAVCGVVL [pTM-NRP1], the “VEGF165-dependent C6 cells migration out of aggregates” value [1] was “suppressed”, the tumour size (C6 glioma; C6 cells treated with peptide 10^−8 M prior to injection in the left striatum, 8 days, n=4) was “strong reduction” and the “immunoreactivity for CD34, a marker of neoangiogenesis” value (C6 glioma; C6 cells treated with peptide 10^−8 M prior to injection, brain sections at 8 days) was “strong reduction”. The “effect on cellular collapses of COS-1 cells triggered by Sema 3A” value [2] was “completely abolished”, the IC50 ([3]; listed as peptide corresponding to the transmembrane domain of NRP1) was < 0.01 nM and the IC50 [3] was ~0.01 nM.
